From ChEMBL document CHEMBL1143322, “Probing UDP-galactopyranose mutase binding pocket: a dramatic effect on substitution of the 6-position of UDP-galactofuranose” (Bioorg Med Chem Lett, 2009)

Legend:
[1] = test system: Escherichia coli; assay: Activity of Escherichia coli UDP-galactopyranose mutase by HPLC
[2] = test system: Escherichia coli; assay: Ratio of Kcat to Km of Escherichia coli UDP-galactopyranose mutase; set-up: unit not given here
[3] = test system: Escherichia coli; assay: Inhibition of Escherichia coli UDP-galactopyranose mutase assessed as inhibition of conversion to UDP-galactopyranose; settings: concentration not given here
[4] = Binding affinity to Escherichia coli UDP-galactopyranose mutase

SMILES | Km [1] [µM] | kcat [1] [s⁻¹] | kcat/Km [2] | inhibition [3] [%] | Kd [4] [µM]
O=c1ccn([C@@H]2O[C@H](COP(=O)(O)OP(=O)(O)O[C@H]3O[C@@H]([C@@H](O)CO)[C@H](O)[C@H]3O)[C@@H](O)[C@H]2O)c(=O)[nH]1 | 22 | 27 | 1.23 | – | –
O=c1ccn([C@@H]2O[C@H](COP(=O)(O)OP(=O)(O)O[C@H]3O[C@@H](CO)[C@H](O)[C@H]3O)[C@@H](O)[C@H]2O)c(=O)[nH]1 | 600 | 12 | 0.02 | – | –
O=c1ccn([C@@H]2O[C@H](COP(=O)(O)OP(=O)(O)O[C@H]3O[C@@H]([C@@H](O)CO)[C@H](O)[C@H]3F)[C@@H](O)[C@H]2O)c(=O)[nH]1 | 65 | 0.033 | 0.00041 | – | –
O=c1ccn([C@@H]2O[C@H](COP(=O)(O)OP(=O)(O)O)[C@@H](O)[C@H]2O)c(=O)[nH]1 [URIDINE_DIPHOSPHATE] | – | – | – | 22 | 14
O=c1ccn([C@@H]2O[C@H](COP(=O)(O)OP(=O)(O)O[C@H]3O[C@@H]([C@@H](O)CO)[C@H](F)[C@H]3O)[C@@H](O)[C@H]2O)c(=O)[nH]1 | 861 | 5.7 | 0.0054 | – | –
O=c1ccn([C@@H]2O[C@H](COP(=O)(O)OP(=O)(O)O[C@H]3O[C@@H]([C@@H](O)CF)[C@H](O)[C@H]3O)[C@@H](O)[C@H]2O)c(=O)[nH]1 | 24000 | 7.4 | 0.00034 | 20 | –
